Measurements reported in the Bradley open melting point set (2014).
Where “and” joins values, the source holds several entries; their conditions need not be identical. Identical values can stand only once.

| Compound | melting point |
| --- | --- |
| CCC(=O)O[C@](Cc1ccccc1)(c1ccccc1)[C@H](C)CN(C)C [propoxyphene] | 75.5 °C |
| COc1ccc(OC)c(C)c1 [2,5-dimethoxytoluene] | 20 °C |
| O=C1OCCOC(=O)C2CCCCC2C(=O)OCCOC(=O)C2CCCCC12 (stereo not given) | 140 °C |
| COc1ccc(N)c(OC)c1 [2,4-dimethoxyaniline] | 35 °C |
| CSCC[C@H](NC(C)=O)C(=O)O [N-Acetyl-L-methionine] | 106 °C |
| CC(=O)OCC(=O)c1ccccc1 [2-acetoxy_acetophenone] | 89 °C |
| COc1ccc(Cl)c(Cl)c1Cl [1-Methoxy-2,3,4-trichlorobenzene] | 70 °C |
| N#Cc1ccc(B(O)O)s1 [5-cyanothiophene-2-boronic acid] | 127 °C |
| CCc1ccc(Br)cc1 [1-bromo-4-ethylbenzene] | -43 °C |
| O=C(O)c1ccccc1[N+](=O)[O-] [2-Nitrobenzoic acid] | 147 °C |
| CCCCC1(CC)C(=O)NC(=O)NC1=O [Butethal] | 128 °C |
| C#CCCCCCCCC [1-decyne] | -44 °C |
| O=C(O)Cc1ccc(O)c(F)c1 [3-fluoro-4-hydroxyphenylacetic acid] | 132 °C |
| O=[N+]([O-])c1ccc(CS(=O)(=O)Cl)cc1 [4-nitro-alpha-toluenesulfonyl chloride] | 92 °C |
| FC(F)(F)c1ccc(Br)nc1 [2-bromo-5-(trifluoromethyl)pyridine] | 46 °C |
| COc1ccc(C=O)cn1 [6-methoxypyridine-3-carboxaldehyde] | 51 °C |
| O=P1(NCCCl)OCCCN1CCCl (stereo not given) [Ifosfamide] | 40 °C |
| CC(C)c1cccc(C(C)C)c1N [2,6-diisopropylaniline] | -54 °C |
| N=C(N)NCCC[C@H](N)C(=O)O [L-Arginine] | 221 °C |
| Cc1ccc(N)cc1Cl [3-Chloro-4-methylaniline] | 26 °C |
| CC(=O)NNC(N)=S [1-acetyl-3-thiosemicarbazide] | 167 °C |
| Cc1ccccc1[N+](=O)[O-] [1-Methyl-2-nitrobenzene] | -10 °C |
| CC1CCCCN1 (stereo not given) [2-methylpiperidine] | -4 °C |
| O/N=C(\Cc1ccccc1)c1ccc2ccccc2c1 [(1E)-N-hydroxy-1-(naphthalen-2-yl)-2-phenylethanimine] | 129 °C |
| O=C(O)c1cccc2c1nnn2Cc1ccccc1 [1-Benzyl-1H-benzotriazole-4-carboxylic acid] | 221 °C |

Second part, the compound after the results:

| melting point | Compound |
| --- | --- |
| -16.5 °C | O=C(O)CS [Sulfanylacetic acid] |
| -80 °C | CCCCSCCCC [di-n-butyl sulfide] |
| 239 °C | O=C1OC(c2ccc(O)c3ccccc23)(c2ccc(O)c3ccccc23)c2ccccc21 [alpha-naphtholphthalein] |
| 27 °C | COC(=O)CCCCCCCCC(=O)OC [dimethyl sebacate] |
| 219 °C | COC1=CC(=O)CC(C)C12Oc1c(Cl)c(OC)cc(OC)c1C2=O (stereo not given) [griseofulvin] |
| 134 °C | CCOc1ccc(NC(C)=O)cc1 [phenacetin] |
| 61 °C | C1CCCCCCCCCCC1 [cyclododecane] |
| 94 °C | OCCN1CCN(CCCN2c3ccccc3Sc3ccc(Cl)cc32)CC1 [perphenazine] |
| 16.3 °C and 17 °C | CCCCCCCC(=O)O [octanoic acid] |
| 166 °C | COC(=O)CCC(C)C1CCC2C3C(OC(C)=O)CC4CC(=O)CCC4(C)C3CC(=O)C12C (stereo not given) [methyl 7-(acetyloxy)-3,12-dioxocholan-24-oate] |
| 80 °C | O=C(O)C(F)c1ccccc1 (stereo not drawn) [alpha-fluorophenylacetic acid] |
| 124 °C | CC(C)(C)NCC(O)COc1cccc2c1CC(O)C(O)C2 (stereo not given) [nadolol] |
| -3 °C | CCCCCC(=O)O [hexanoic acid] |
| 204 °C | C#C[C@]1(O)CC[C@H]2[C@@H]3CCC4=CC(=O)CC[C@@H]4[C@H]3CC[C@@]21C [norethindrone] |
| 106 °C | N#Cc1ccc2[nH]ccc2c1 [indole-5-carbonitrile] |
